Experimental data published in a compilation of properties of binary mixtures (doi:10.1021/je400097b).

Test: xn = mol fraction of the nth substance listed
Conditions: 101 kPa

O + CC[NH+](C)CC.O=S(=O)([O-])C(F)(F)F
viscosity (293.15 K, x1 = 1): 1.2 mPa·s

CC[NH+](C)CC.O=S(=O)([O-])C(F)(F)F + O
viscosity (293.15 K, x2 = 0.037): 53.3 mPa·s
viscosity (293.15 K, x2 = 0.434): 22.3 mPa·s
viscosity (293.15 K, x2 = 0.586): 14.5 mPa·s
viscosity (293.15 K, x2 = 0.844): 4.99 mPa·s
viscosity (293.15 K, x2 = 0.925): 2.86 mPa·s
viscosity (293.15 K, x2 = 0.972): 1.69 mPa·s
viscosity (313.15 K, x2 = 0.434): 12.1 mPa·s
viscosity (313.15 K, x2 = 0.586): 7.98 mPa·s
viscosity (313.15 K, x2 = 0.759): 4.38 mPa·s
viscosity (313.15 K, x2 = 0.844): 2.89 mPa·s
viscosity (313.15 K, x2 = 0.925): 1.75 mPa·s
viscosity (313.15 K, x2 = 0.972): 1.2 mPa·s
viscosity (333.15 K, x2 = 0.037): 14.6 mPa·s
viscosity (333.15 K, x2 = 0.586): 4.97 mPa·s
viscosity (333.15 K, x2 = 0.925): 1.28 mPa·s
viscosity (333.15 K, x2 = 0.972): 1.01 mPa·s
viscosity (353.15 K, x2 = 0.037): 9.18 mPa·s
viscosity (353.15 K, x2 = 0.586): 3.38 mPa·s
viscosity (353.15 K, x2 = 0.844): 1.45 mPa·s
viscosity (353.15 K, x2 = 0.925): 1.08 mPa·s
viscosity (353.15 K, x2 = 0.972): 0.91 mPa·s
